In ChEMBL document CHEMBL4316594, “An overview of grayanane diterpenoids and their biological activities from the Ericaceae family in the last seven years” (Eur J Med Chem, 2019):
pIC50: −log10 of the molar value.

Tests used:
[1] = biological target: T1, Tyrosine-protein phosphatase non-receptor type 1 (Homo sapiens, UniProt P18031); experiment: Inhibition of recombinant human PTP1B expressed in Escherichia coli using pNPP as substrate preincubated for 10 mins followed by substrate addition for 30 mins and measured at 5 mins interval for 30 mins
T1 sequence (P18031 whole entry): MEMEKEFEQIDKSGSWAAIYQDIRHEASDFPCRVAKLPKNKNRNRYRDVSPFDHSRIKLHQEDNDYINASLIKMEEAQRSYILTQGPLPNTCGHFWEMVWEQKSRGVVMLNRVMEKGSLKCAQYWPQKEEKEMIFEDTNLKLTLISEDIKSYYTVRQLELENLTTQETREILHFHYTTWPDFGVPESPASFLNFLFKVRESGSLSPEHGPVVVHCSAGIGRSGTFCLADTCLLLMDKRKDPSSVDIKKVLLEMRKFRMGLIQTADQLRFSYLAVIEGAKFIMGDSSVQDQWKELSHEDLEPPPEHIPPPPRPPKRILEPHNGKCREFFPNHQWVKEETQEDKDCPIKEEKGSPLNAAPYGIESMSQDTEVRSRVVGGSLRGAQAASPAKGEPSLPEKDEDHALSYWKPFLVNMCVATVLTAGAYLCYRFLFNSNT

[2] = tested on: Mus musculus; experiment: Antinociceptive activity in ip dosed Kunming mouse model assessed as inhibition of acetic acid-induced writhes pretreated for 15 mins followed by acetic acid challenge and measured for 20 mins post acetic acid challenge; type: functional; settings: read-out: ID50 (the source's name)
[3] = tested on: Mus musculus; experiment: Antinociceptive activity in Kunming mouse model assessed as inhibition of acetic acid-induced writhes at 5 mg/kg, ip pretreated for 15 mins followed by acetic acid challenge and measured for 20 mins post acetic acid challenge relative to control; type: functional
[4] = tested on: Mus musculus; experiment: Antinociceptive activity in Kunming mouse model assessed as inhibition of acetic acid-induced writhes at 0.08 mg/kg, ip pretreated for 30 mins followed by acetic acid challenge and measured for 30 mins post acetic acid challenge relative to control; type: functional
[5] = tested on: Influenza A virus; experiment: Antiviral activity against Influenza A virus (A/Hanfang/359/95(H3N2)) infected in MDCK cells assessed as reduction in virus-induced cytopathogenicity; type: functional, organism-based
[6] = tested on: Pieris brassicae; experiment: Antifeedant activity in Pieris brassicae measured 24 hrs post leaf feeding by leaf disc method; type: functional, organism-based
[7] = tested on: Coxsackievirus B3; experiment: Antiviral activity against Coxsackievirus B3 infected in African green monkey Vero cells; type: functional, organism-based; settings: Enterovirus B
[8] = biological target: T1, Tyrosine-protein phosphatase non-receptor type 1; experiment: Inhibition of recombinant PTP1B catalytic domain (unknown origin) using pNPP as substrate
[9] = tested on: Mus musculus; experiment: Antinociceptive activity in Kunming mouse model assessed as inhibition of acetic acid-induced writhes at 10 mg/kg, ip pretreated for 15 mins followed by acetic acid challenge and measured for 20 mins post acetic acid challenge relative to control; type: functional
[10] = biological target: T1, Tyrosine-protein phosphatase non-receptor type 1; experiment: Inhibition of recombinant human PTP1B expressed in Escherichia coli using pNPP as substrate preincubated for 30 mins followed by substrate addition for 45 mins and measured at 5 mins interval for 30 mins

For `CC1=C[C@@H]2O[C@@]3(C)[C@@H]4C[C@H](O)[C@H]1[C@]24C[C@@H](O)[C@@]1(O)[C@H]3[C@@H]2O[C@@H]2C1(C)C`, the pIC50 [1] was 4.61.

Molecule `CC(C)(O)[C@]12OC(=O)C[C@H]1[C@](C)(O)[C@@H]1[C@H](O)C[C@@H]3[C@@H](O)[C@@]1([C@H](O)[C@H]2O)[C@@H](O)[C@@]3(C)O` has an ED50 [2] of 0.72 mg/kg and an inhibition in vivo at 5 mg/kg [3] of 69.9%.

`CC1(C)[C@@H](O)[C@H](Cl)[C@H]2[C@](C)(O)[C@@H]3CC[C@@H]4[C@@H](O)[C@]3(C[C@@]4(C)O)[C@H](O)[C@@H](O)[C@@]21O` gave an inhibition in vivo at 0.08 mg/kg [4] of 49.8%.

`CC1(C)[C@H]2O[C@H]2[C@H]2[C@@]3(C)O[C@H](C[C@@]45C=C[C@@H](C[C@H]43)[C@](C)(O)C5)[C@]21C` was tested, and the pIC50 [5] was 4.72.

`CC(O)C(=O)O[C@@H]1[C@H]2CC[C@H]3[C@@](C)(O)[C@@H]4[C@@H]5O[C@@H]5C(C)(C)[C@@]4(O)[C@H](O)C(=O)[C@@]13C[C@@]2(C)O` (stereo partly drawn) was tested, and the inhibition in vivo at 0.08 mg/kg [4] was 37.6%.

`CO[C@H]1C[C@]23C[C@@](C)(O)[C@H](CC[C@H]2[C@](C)(C2=CO[C@H](OC)C(C)(C)C2=O)O1)[C@H]3O` gave a pIC50 [1] of 4.78.

`CCC(=O)O[C@@H]1[C@H]2CC[C@H]3[C@@](C)(O)[C@@H]4CC(=O)O[C@]4([C@](C)(O)CCl)[C@H](OC(C)=O)[C@@H](OC(C)=O)[C@@]13[C@@H](OC(C)=O)[C@@]2(C)OC(C)=O` was tested, and the EC50 [6] was 5.33 microg/cm2.

`CC(=O)[C@@H]1C[C@@H](O)[C@H]2[C@@H](O)[C@@]1(C[C@H]1OC(=O)C(C)(C)[C@]1(O)CCO)C[C@@]2(C)O` was tested, and the pIC50 [7] was 4.56.

With `CC(C)(O)[C@]12OC(=O)C[C@H]1[C@](C)(O)[C@@H]1CC[C@@H]3[C@@H](O)[C@@]1([C@H](O)[C@H]2O)[C@@H](O)[C@@]3(C)O` the ED50 [2] was 1.24 mg/kg and the inhibition in vivo at 5 mg/kg [3] was 63.5%.

`CC1=C[C@]23C[C@H]1CC[C@H]2[C@]1(C)[C@@H](O)CCCC(C)(C)C(=O)[C@@H]1C3` was tested, and the “inhibition (INH)” value [6] was 45%.

`CO[C@@H]1C[C@]23C[C@@](C)(O)[C@H](CC[C@H]2[C@](C)(C2=CO[C@H](OC)C(C)(C)C2=O)O1)[C@H]3O` gave a pIC50 [1] of 4.70.

`C=C1[C@H]2C[C@H](O)C(C)(C)[C@@]2(O)[C@H](O)C[C@]23C[C@@](C)(O)[C@H](CC[C@@H]12)[C@H]3O` was tested, and the pIC50 [8] was 4.61.

With `C=C1[C@H]2C[C@H](O)C(C)(C)[C@@]2(O)[C@H](O)C[C@]23C=C(C)[C@H](CC[C@@H]12)[C@H]3O` the pIC50 [8] was 5.50.

With `C[C@]12CC[C@H](O)[C@@]3(C)[C@@H]4CC[C@@H]5C[C@]4(C[C@@]5(C)O)C[C@@]3(OC1=O)C2=O` the inhibition in vivo at 10 mg/kg [9] was 45% and the “inhibition (INH)” value [6] was 45%.

In the case of `CC1(C)CCC[C@H](O)[C@@]2(C)[C@@H]3CC[C@@H]4C[C@@]3(C[C@H]2C1=O)C[C@@]4(C)O`, the “inhibition (INH)” value [6] was 45%.

For `Cc1cccc(C[C@H]2O[C@]3(C)O[C@@]24[C@@H]([C@@H](O)[C@H](O)C4(C)C)[C@H]3C)c1`, the pIC50 [10] was 4.49.

With `Cc1cccc(C[C@H]2O[C@]3(C)O[C@@]24[C@@H]([C@@H](O)[C@H](O)C4(C)C)[C@@H]3C)c1` the pIC50 [10] was 4.64.

`CO[C@@H]1O[C@H]2O[C@@H]3C[C@]45C[C@@](C)(O)[C@H](CC[C@H]4[C@@](C)(O3)[C@H]2CC1(C)C)[C@H]5O` was tested, and the pIC50 [1] was 4.37.

For `CO[C@H]1[C@H](O)C(C)(C)[C@@]2(O)[C@H](O)[C@@H](O)[C@]34C[C@@](C)(O)[C@H](CC[C@H]3[C@@](C)(O)[C@H]12)[C@H]4O`, the inhibition in vivo at 0.08 mg/kg [4] was 56.8%.

With `CCC(=O)O[C@@H]1[C@@H](OC(C)=O)[C@@]2([C@](C)(O)CCl)OC(=O)C[C@H]2[C@](C)(O)[C@@H]2CC[C@@H]3[C@@H](OC(C)=O)[C@]12[C@@H](OC(C)=O)[C@@]3(C)OC(C)=O` the EC50 [6] was 10.07 microg/cm2.
